In one series the test system is MM.1S. Also noted: method as in previous findings. Conditions: reference number not given; ref previous findings; read-out: IC50 for the reduction of MM.1S viability; cited from earlier work.
In a further series the test system is β5c. Particulars: in parentheses in Table S2; SI reference list; read-out: IC50 β5c, previously published data; cited from earlier work.
Another series addresses β5i subunit of human iCP (Homo sapiens, UniProt P20618+P28062). Briefly: IC50 determination with fluorogenic substrate Ac-ANW-AMC. Particulars: for IC50: IC50 β5i.
The target in a further series is β2i subunit of human iCP (Homo sapiens, UniProt P40306+P49720). Briefly: IC50 determination with fluorogenic substrate Ac-RLR-AMC (PA28β added).
A further series has as its system β2c. Particulars: in parentheses in Table S2; SI reference list; read-out: IC50 β2c, previously published data; cited from earlier work.
Another series relates to β1i. Conditions: in parentheses in Table S2; SI reference list; read-out: IC50 β1i, previously published data; cited from earlier work.
The nature of another series: Cytotoxicity MTS assay. It is filed as cell-based. Particulars: human, MM.1S multiple myeloma cells, 250 nM, 72 h (Figure S3), read-out: viable cells. (In general: Tetrazolium assays rely on reduction of a dye to a coloured formazan, in cell work by metabolically active cells.)
For another series, the target named is T1, β2c subunit of human cCP (Homo sapiens, UniProt P49720+Q99436).
T1 construct: purchased Boston Biochem, Inc
Briefly: IC50 determination with fluorogenic substrate Ac-RLR-AMC (PA28β added). It is filed as biochemical.

Another series relates to β2i. Particulars: in parentheses in Table S2; SI reference list; read-out: IC50 β2i, previously published data; cited from earlier work.
The target of a further series is T2, β5c subunit of human cCP (Homo sapiens, UniProt P20618+P28074).
T2 construct: purchased Boston Biochem, Inc
In words: IC50 determination with fluorogenic substrate Ac-WLA-AMC. It is filed as biochemical.

In the next series the test system is β1c. Conditions: in parentheses in Table S2; SI reference list; read-out: IC50 β1c, previously published data; cited from earlier work.
For a further series, the target named is β1i subunit of human iCP (Homo sapiens, UniProt P28065+P40306). In words: IC50 determination with subunit-specific fluorogenic substrate Ac-PAL-AMC. Particulars: for IC50: IC50 β1i.
The next series concerns the target T3, β1c subunit of human cCP (Homo sapiens, UniProt P28072+Q99436).
T3 construct: purchased Boston Biochem, Inc
In words: IC50 determination with subunit-specific fluorogenic substrate Ac-nLPnLD-AMC. Format: biochemical.

The test system of the next series is β5i. Conditions: in parentheses in Table S2; SI reference list; read-out: IC50 β5i, previously published data; cited from earlier work.
The nature of series [1]: Solubility remark (exclusion from cell-based assays). It is filed as physicochemical. Particulars: reason for not using in cell-based assays.
The test system of series [2] is all subunits of the human cCP and iCP. Briefly: Subunit inhibition profile and preference across cCP and iCP subunits. Format: biochemical.
Method: (§1) The final assay mixtures contained 0.4 nM human iCP or cCP in assay buffer (50 mM Tris-HCl, 0.5 mM EDTA, pH 7.4, addition of PA28β for β2c and β2i subunits). […] After incubation at 37 °C for 30 min, the reaction was initiated by the addition of the substrate Ac-nLPnLD-AMC for β1c, Ac-PAL-AMC for β1i, Ac-RLR-AMC for β2c and β2i, Ac-WLA-AMC for β5c, and Ac-ANW-AMC for β5i. Fluorescence was monitored at 460 nm (excitation at 360 nm) for 60 min at 37 °C. The reaction progress was recorded and the initial linear phases were used to determine the velocity. The IC50 values were calculated using GraphPad Prism software (GraphPad Software, San Diego, CA, USA), and the results represent the mean values of at least three independent determinations.
The mark [3] stands for this setting: human iCP, mean of at least three experiments, NA: not active at 50 μM.
The mark [4] stands for this setting: human cCP, mean of at least three experiments, NA: not active at 50 μM.

Method for Cytotoxicity MTS assay: Cytotoxicity was determined using the MTS cell proliferation assay (CellTiter 96 AQueous One Solution Cell Proliferation Assay, Promega, Wisconsin, USA), which measures mitochondrial metabolic activity as a surrogate for cell viability. The assay was performed according to the manufacturer protocol. […] The cells were seeded in 96-well plates (15.000–30.000 cells/well). After 24 h incubation at 5% CO2 and 37 °C, the cells were treated either with DMSO (negative control) or solutions of the tested compounds in DMSO. After 24 or 72 h, MTS reagent was added. Cells were incubated for additional 2 h - 4 h, followed by the measurement of absorbance at 490 nm on the Tecan Spark microplate reader.
Method for β1c subunit of human cCP: (§2) The measurements of the residual activity of control compounds were carried out at final compound concentrations of 1 μM in the assay buffer (50 mM Tris-HCl, 0.5 mM ethylenediaminetetraacetic acid (EDTA), pH 7.4). Stock solutions of the compounds were prepared in DMSO. To the 35 μL of solution of the compound in the buffer, 35 μL of 0.4 nM human iCP (South Bay Bio, San Jose, CA, USA) or human cCP (Boston Biochem, Inc., Cambridge, MA, USA) was added. For assays evaluating the activity of β2c and β2i, the buffer was modified by adding the proteasomal activator PA28β (Boston Biochem, Inc., Cambridge, MA, USA) at a final concentration of 6 nM. […] The substrates used were acetyl-Nle-Pro-Nle-Asp-7-amino-4-methylcoumarin (Ac-nLPnLD-AMC, Bachem, Bubendorf, Switzerland) for β1c, acetyl-Pro-Ala-Leu-7-amino-4-methylcoumarin (Ac-PAL-AMC, Boston Biochem, Inc., Cambridge, MA, USA) for β1i, acetyl-Arg-Leu-Arg-7-amino-4-methylcoumarin (Ac-RLR-AMC, Bachem, Bubendorf, Switzerland) for β2c and β2i, acetyl-Trp-Leu-Ala-7-amino-4-methylcoumarin (Ac-WLA-AMC, Bachem, Bubendorf, Switzerland) for β5c, and acetyl-Ala-Asn-Trp-7-amino-4-methylcoumarin (Ac-ANW-AMC, Bachem, Bubendorf, Switzerland) for β5i. Progress of the reaction was measured using a BioTek Synergy HT microplate reader, monitoring fluorescence at 460 nm (excitation at 360 nm) for 60 min at 37 °C. The initial linear ranges were used to calculate the reaction velocity and determine the residual activity.
as §1
Method for β1i subunit of human iCP: as §2, §1
Method for β2c subunit of human cCP: Stock solutions of the compounds were prepared in DMSO. To the 35 μL of solution of the compound in the buffer, 35 μL of 0.4 nM human iCP (South Bay Bio, San Jose, CA, USA) or human cCP (Boston Biochem, Inc., Cambridge, MA, USA) was added. For assays evaluating the activity of β2c and β2i, the buffer was modified by adding the proteasomal activator PA28β (Boston Biochem, Inc., Cambridge, MA, USA) at a final concentration of 6 nM. […] The substrates used were acetyl-Nle-Pro-Nle-Asp-7-amino-4-methylcoumarin (Ac-nLPnLD-AMC, Bachem, Bubendorf, Switzerland) for β1c, acetyl-Pro-Ala-Leu-7-amino-4-methylcoumarin (Ac-PAL-AMC, Boston Biochem, Inc., Cambridge, MA, USA) for β1i, acetyl-Arg-Leu-Arg-7-amino-4-methylcoumarin (Ac-RLR-AMC, Bachem, Bubendorf, Switzerland) for β2c and β2i, acetyl-Trp-Leu-Ala-7-amino-4-methylcoumarin (Ac-WLA-AMC, Bachem, Bubendorf, Switzerland) for β5c, and acetyl-Ala-Asn-Trp-7-amino-4-methylcoumarin (Ac-ANW-AMC, Bachem, Bubendorf, Switzerland) for β5i. Progress of the reaction was measured using a BioTek Synergy HT microplate reader, monitoring fluorescence at 460 nm (excitation at 360 nm) for 60 min at 37 °C. The initial linear ranges were used to calculate the reaction velocity and determine the residual activity.
as §1
Method for β2i subunit of human iCP: as §2, §1
Method for β5c subunit of human cCP: as §2, §1
Method for β5i subunit of human iCP: as §2, §1

A word on the IC50: it is the concentration that inhibits the measured activity by half. For the compound `O=C(N[C@@H](Cc1coc2ccccc12)B(O)O)[C@@H]1C[C@H]2CC[C@@H]1O2` [M3258], the half-maximal inhibitory concentration (IC50) was 367 nM with MM.1S; 2520 nM in the series with β5c; 7.4 ± 1 nM on β5i subunit of human iCP (own assay); above 1000 nM against β2i subunit of human iCP; above 30 µM in the series with β2c; above 30 µM with β1i. The IC50 is above 1000 nM against β2c subunit of human cCP (own assay); above 30 µM in the series with β2i; 1230 ± 90 nM against β5c subunit of human cCP (own assay); above 30 µM in the series with β1c; above 1000 nM against β1i subunit of human iCP (own assay); above 1000 nM against β1c subunit of human cCP (own assay). Moreover, the half-maximal inhibitory concentration (IC50) in the series with β5i was 4.1 nM. In “Cytotoxicity MTS assay”, the viability at 72 h, […] worked out at 87%.

`O=C(N[C@@H](Cc1ccccc1)C(=O)N[C@H](B(O)O)c1ccc(-c2ccccc2)cc1)c1cnccn1` [5h, ((R)-[1,1′-Biphenyl]-4-yl((S)-3-phenyl-2-(pyrazine-2-carboxamido)propanamido)methyl)boronic Acid]: the concentration for half-maximal inhibition (IC50) on β5i subunit of human iCP (setting [3]) was 24 nM; on β2i subunit of human iCP, 260 nM; against β5c subunit of human cCP (setting [4]), 12 nM; against β1i subunit of human iCP (setting [3]) it was 270 nM; at β1c subunit of human cCP (setting [4]) it was 1310 nM; against β1c subunit of human cCP (own assay) it was above 1000 nM. For the same compound, the “IC50 β2c” value at β2c subunit of human cCP (setting [4]) is on record as “no detectable inhibition”. Moreover, the solubility result in series [1] is listed as “limited solubility”. Also, the “IC50 for both β5 subunits, fold better than IC50 for β1i” value in series [2] is listed as 10–20 fold.

As for `O=C(N[C@@H](Cc1ccccc1)C(=O)N[C@H](B(O)O)c1ccc(Cl)cc1)c1cnccn1` [5d, ((R)-(4-Chlorophenyl)((S)-3-phenyl-2-(pyrazine-2-carboxamido)propanamido)methyl)boronic Acid], the IC50 on β5i subunit of human iCP (setting [3]) was determined as 3 nM; against β2i subunit of human iCP it was 74500 nM; at β2c subunit of human cCP (setting [4]) it was 1850 nM; against β5c subunit of human cCP (setting [4]) it was 114 nM; against β1i subunit of human iCP (setting [3]), 17 nM; on β1c subunit of human cCP (setting [4]), 897 nM. Moreover, the “IC50 for β5i, fold lower than for β5c” value at β5i subunit of human iCP (β5i vs β5c) is 30 fold. In series [1], the solubility result is listed as “limited solubility”. In addition, the “IC50 for β1i, fold lower than for β1c” value on β1i subunit of human iCP (β1i vs β1c) is recorded as 50 fold.
